In ChEMBL document CHEMBL5143640, “Diverse Sesquiterpenoids and Polyacetylenes from Atractylodes lancea and Their Anti-Osteoclastogenesis Activity” (J Nat Prod, 2022) one finds Activity and IC50 data, which are given here for 2 compounds.

The structures appear in SMILES notation.

Series [1] relates to BMDM. In words: Anti-osteoclastogensis activity C57BL/6 mouse bone marrow macrophages assessed as inhibition of RANKL-induced osteoclastogenesis by measuring osteoclasts number at 1 to 10 uM and measured after 5 days in presence of M-CSF by TRAP staining based assay. It is filed as functional, cell-based. To be noted: dose 1-10 µM, time 5.0 day, DDE = dose-dependent effect.

Series [2] relates to BMDM. Put plainly: Anti-osteoclastogensis activity C57BL/6 mouse bone marrow macrophages assessed as inhibition of RANKL-induced osteoclastogenesis by measuring osteoclasts size at 1 to 10 uM and measured after 5 days in presence of M-CSF by TRAP staining based assay. It is filed as functional, cell-based. To be noted: dose 1-10 µM, time 5.0 day, DDE = dose-dependent effect.

Series [3] in a line: Anti-osteoclastogensis activity C57BL/6 mouse bone marrow macrophages assessed as inhibition of RANKL-induced osteoclastogenesis and measured after 5 days in presence of M-CSF by TRAP staining based assay. The class given is functional, cell-based. Particulars: bmdm.
Series [4] concerns BMDM. Put plainly: Cytotoxicity against C57BL/6 mouse bone marrow macrophages assessed as reduction in cell viability at 10 uM incubated for 48 hrs in presence of M-CSF by CCK8 assay. It is filed as toxicity, cell-based.

Regarding `CC(=O)OCCC(/C=C/C=C/C#CC#C/C=C/CO)OC(C)=O` (stereo not drawn), the results for the Activity result in the series on BMDM [1], in the series on BMDM [2] and with BMDM [4] were “Dde”, “Dde” and “Non-Toxic”, respectively. Also, in series [3], the IC50 stood at 1300 nM.

As for `OC/C=C/C#CC#C/C=C/c1ccco1`, the Activity entry is “Dde” in the series on BMDM [1], “Dde” in the series on BMDM [2] and “Non-Toxic” with BMDM [4]. Moreover, the IC50 in series [3] amounted to 640 nM.
